The values that follow come from patent US20250129028A1, “COMPOUNDS AND METHODS FOR YAP/TEAD MODULATION AND INDICATIONS THEREFOR” (Opna Bio SA, priority 2022, published 2025).

In this experiment the test system is TEAD-dependent transcription. The experiment is described as follows: TEAD-dependent transcription cell-based reporter assay (MSTO-211H+12XGTIIC luciferase). More on the design: species or system human. The note with it: Homo sapiens; MSTO-211H+12XGTIIC cell line, luciferase signal normalized to cell viability, 24 hours compound incubation; read-out: MSTO-211H GMean IC50 (uM) Cell Assay Reporter Cell Variant: TEAD. The source says: Determine Inhibitor Activity Against TEAD-Dependent Transcription in a Cell-Based Reporter Assay
The human mesothelioma cell line MSTO-211H was stably transfected with a pGL4.21 plasmid containing a synthetic promoter with 12 copies of the GTIIC TEAD response element that drives the expression of a luciferase reporter gene^1 using Lipofectamine transfection reagent (Thermo Fisher). Transfected cells were selected using puromycin and single cell clones expressing this construct (referred to as MSTO-211H+12XGTIIC) were generated by limiting dilution. MSTO-211H cells was characterized by genetic alterations in key components of the Hippo pathway^2, resulting in up-regulation of YAP/TEAD-mediated transcription. […] To evaluate TEAD inhibitors, the MSTO-211H+12XGTIIC cell line was seeded in a 96-well plate in 50 μL of culture media at 1×10^4 cells per well and incubated at 37° C. overnight. Serial dilutions of compounds (in total volume of 50 μL of culture media) were added to the cells and incubated at 37° C. for 24 hours. Each plate included cells treated with DMSO as high controls and cells treated with 20 μM of the reference compound K-975 (a known TEAD inhibitor)^3 as low controls. Cell viability was assayed by the addition of 25 μL of CellTiter-Fluor reagent (Promega) followed by a 30-minute incubation at 37° C. and quantification of the fluorescence signal (Ex400/Em505). Subsequently, luciferase expression was assayed by the addition of 25 μL of ONE-Glo reagent (Promega) followed by a 10-minute incubation at room temperature and quantification of the luminescence signal. The luminescence signal was normalized to the fluorescence signal to correct for any loss in cell viability over the 24-hour compound incubation period. The percentage of inhibition of normalized luminescence signal, indicative of compound-mediated inhibition of TEAD-dependent transcription, at individual compound concentrations relative to high and low controls was calculated. The data were analyzed by using nonlinear regression to generate IC50 values for individual compounds.
On to `O=C(CNS(=O)(=O)C1CC1)N1CCc2ccc(Oc3ccc(C(F)(F)F)c(F)c3)cc2C1` [P-0117, N-(2-(7-(3-fluoro-4-(trifluoromethyl)phen-oxy)-3,4-dihydroisoquin-olin-2(1H)-yl)-2-oxoeth-yl)cyclopropanesulfon-amide], for which the half-inhibitory concentration (IC50) lay in the range of 0.001 to 10 µM.
`CC(=O)N1CCc2ccc(Oc3ccc(C(F)(F)F)cc3)cc2C1` [P-0013, 1-(7-(4-(trifluorometh-yl)phenoxy)-3,4-dihydroisoquinolin-2(1H)-yl)ethan-1-one]: the 50% inhibitory concentration (IC50) was in the range of 0.001 to 10 µM.
The same measure for `N#Cc1ccncc1NC(=O)N1CCc2ccc(Oc3ccc(C(F)(F)F)cc3)cc2C1` [P-0064, N-(4-Cyanopyridin-3-yl)-7-(4-(trifluoromethyl)phenoxy)-3,4-dihydroisoquinoline-2(1H)-carboxamide]: 0.001 to 10 µM; for `CS(=O)(=O)c1ncc(C(=O)N2CCc3ccc(Oc4ccc(C(F)(F)F)cc4)cc3C2)s1` [P-0075, (2-(methylsulfonyl)thi-azol-5-yl)(7-(4-(trifluoro-methyl)phenoxy)-3,4-dihydroisoquinolin-2(1H)-yl)methanone]: 0.001 to 10 µM; for `CC(C)(C)OC(=O)NCC(=O)N1CCc2ccc(Oc3ccc(C(F)(F)F)cc3)cc2C1` [P-0131, tert-butyl (2-oxo-2-(7-(4-(trifluoromethyl)phen-oxy)-3,4-dihydroisoquin-olin-2(1H)-yl)ethyl)-carbamate]: 0.001 to 10 µM.
Take `CS(=O)(=O)CCC(=O)N1CCc2ccc(Oc3ccc(C(F)(F)F)c(F)c3)cc2C1` [P-0085, 1-(7-(3-fluoro-4-(trifluoromethyl)phen-oxy)-3,4-dihydroisoquin-olin-2(1H)-yl)-3-(methyl-sulfonyl)propan-1-one]: the IC50 fell in the range of 0.001 to 10 µM.
As for `Nc1nc(C(=O)N2CCc3ccc(Oc4ccc(C(F)(F)F)cc4)cc3C2)c[nH]1` [P-0107, (2-amino-1H-imidazol-4-yl)(7-(4-(trifluoromethyl)-phenoxy)-3,4-dihydroiso-quinolin-2(1H)-yl)meth-anone], the IC50 is 0.001 to 10 µM.
On to `NCC(=O)N1CCc2ccc(Oc3ccc(C(F)(F)F)c(F)c3)cc2C1` [P-0113, 2-amino-1-(7-(3-fluoro-4-(trifluoromethyl)phen-oxy)-3,4-dihydroisoquin-olin-2(1H)-yl)ethan-1-one], for which the IC50 lay in the range of 0.001 to 10 µM.
For `N=C(N)NCC(=O)N1CCc2ccc(Oc3ccc(C(F)(F)F)cc3)cc2C1` [P-0098, 1-(2-oxo-2-(7-(4-(trifluoromethyl)phen-oxy)-3,4-dihydroiso-quinolin-2(1H)-yl)-ethyl)guanidine], the IC50 is 0.001 to 10 µM.
As to `Nc1nc(CC(=O)N2CCc3ccc(Oc4ccc(C(F)(F)F)cc4)cc3C2)cs1` [P-0137, 2-(2-aminothiazol-4-yl)-1-(7-(4-(trifluoromethyl)-phenoxy)-3,4-dihydroiso-quinolin-2(1H)-yl)ethan-1-one], the IC50 is 0.001 to 10 µM.
The same measure for `N#Cc1nc(N2CCc3ccc(Oc4ccc(C(F)(F)F)cc4)cc3C2)cs1` [P-0134, 4-(7-(4-(trifluorometh-yl)phenoxy)-3,4-dihydro-isoquinolin-2(1H)-yl)thi-azole-2-carbonitrile]: 0.001 to 10 µM.
Consider `CN(C)CCCC(=O)N1CCc2c(cccc2Oc2ccc(C(F)(F)F)cc2)C1` [P-0263, 4-(dimethylamino)-1-(5-(4-(trifluoromethyl)phen-oxy)-3,4-dihydroisoquin-olin-2(1H)-yl)butan-1-one], for which the IC50 fell in the range of 0.001 to 10 µM.
The same measure for `O=S(=O)(C1CCCC1)N1CCc2c(cccc2Oc2ccc(C(F)(F)F)cc2)C1` [P-0236, 2-(cyclopentylsulfonyl)-5-(4-(trifluoromethyl)-phenoxy)-1,2,3,4-tetra-hydroisoquinoline]: 0.001 to 10 µM; for `CCNS(=O)(=O)N1CCc2ccc(Oc3ccc(C(F)(F)F)cc3)cc2C1` [P-0017, N-Ethyl-7-(4-(trifluoromethyl)phenoxy)-3,4-dihydroisoquinoline-2(1H)-sulfonamide]: 0.001 to 10 µM; for `CC(NS(C)(=O)=O)C(=O)N1CCc2ccc(Oc3ccc(C(F)(F)F)cc3)cc2C1` (stereo not shown) [P-0135, N-(1-oxo-1-(7-(4-(trifluoromethyl)phen-oxy)-3,4-dihydroisoquin-olin-2(1H)-yl)propan-2-yl)methanesulfonamide]: 0.001 to 10 µM.
Turning to `COCC(C)NC(=O)N1CCc2c(cccc2Oc2ccc(C(F)(F)F)cc2)C1` (stereo not shown) [P-0266, N-(1-methoxypropan-2-yl)-5-(4-(trifluorometh-yl)phenoxy)-3,4-dihydro-isoquinoline-2(1H)-carboxamide], the IC50 is 0.001 to 10 µM.
Turning to `NS(=O)(=O)c1ccc(C(=O)N2CCc3ccc(Oc4ccc(C(F)(F)F)cc4)cc3C2)cc1` [P-0126, 4-(7-(4-(trifluorometh-yl)phenoxy)-1,2,3,4-tetrahydroisoquinoline-2-carbonyl)benzene-sulfonamide], the concentration for half-maximal inhibition (IC50) fell in the range of 0.001 to 10 µM.
`O=C(Cc1cnccc1O)N1CCc2ccc(Oc3ccc(C(F)(F)F)cc3)cc2C1` [P-0047, 2-(4-hydroxypyridin-3-yl)-1-(7-(4-(trifluoro-methyl)phenoxy)-3,4-dihydroisoquinolin-2(1H)-yl)ethan-1-one]: the IC50 lay within 0.001 to 10 µM.
The same measure for `O=C(CCc1cnc[nH]1)N1CCc2ccc(Oc3ccc(C(F)(F)F)c(F)c3)cc2C1` [P-0151, 1-(7-(3-fluoro-4-(trifluoromethyl)phen-oxy)-3,4-dihydroisoquin-olin-2(1H)-yl)-3-(1H-imidazol-5-yl)propan-1-one]: 0.001 to 10 µM; for `CC(C)NC(=O)N1CCc2c(cccc2Oc2ccc(C(F)(F)F)cc2)C1` [P-0233, N-isopropyl-5-(4-(trifluoromethyl)phen-oxy)-3,4-dihydroisoquin-oline-2(1H)-carboxamide]: 0.001 to 10 µM.
The same measure for `COC(=O)N1CCc2ccc(Oc3ccc(C(F)(F)F)cc3)cc2C1` [P-0025, methyl 7-(4-(trifluoro-methyl)phenoxy)-3,4-dihydroisoquinoline-2(1H)-carboxylate]: 0.001 to 10 µM.
As for `Cc1nnc(CCC(=O)N2CCc3ccc(Oc4ccc(C(F)(F)F)cc4)cc3C2)s1` [P-0046, 3-(5-methyl-1,3,4-thiadi-azol-2-yl)-1-(7-(4-(trifluoromethyl)phen-oxy)-3,4-dihydroisoquin-olin-2(1H)-yl)propan-1-one], the IC50 lay within 0.001 to 10 µM.
In the case of `CS(=O)(=O)CCC(=O)N1CCc2ccc(Oc3ccc(C(F)(F)F)cc3)cc2C1C1CCN(C(=O)C2CC2)CC1` (stereo not shown) [P-0210, 1-(1-(1-(cyclopropanecarbonyl)piperidin-4-yl)-7-(4-(trifluoromethyl)phenoxy)-3,4-dihydroisoquinolin-2(1H)-yl)-3-(methylsulfonyl)propan-1-one], the IC50 was in the range of 0.001 to 10 µM.
The same measure for `O=C(Cc1cnc[nH]1)N1CCc2c(cccc2-c2ccc(C(F)(F)F)cc2)C1` [P-0275, 2-(1H-imidazol-5-yl)-1-(5-(4-(trifluoromethyl)-phenyl)-3,4-dihydroiso-quinolin-2(1H)-yl)ethan-1-one]: 0.001 to 10 µM; for `CN(C)S(=O)(=O)N1CCc2ccc(Oc3ccc(C(F)(F)F)cc3)cc2C1` [P-0024, N,N-dimethyl-7-(4-(trifluoromethyl)phen-oxy)-3,4-dihydroiso-quinoline-2(1H)-sulfon-amide]: 0.001 to 10 µM.
The same measure for `CC(C)(C)OC(=O)NCC(=O)N1CCc2ccc(Oc3ccc(C(F)(F)F)c(F)c3)cc2C1` [P-0112, tert-butyl (2-(7-(3-fluoro-4-(trifluoromethyl)phen-oxy)-3,4-dihydroisoquin-olin-2(1H)-yl)-2-oxoeth-yl)carbamate]: 0.001 to 10 µM; for `CS(=O)(=O)CCC(=O)N1CCc2ccc(Oc3ccc(C(F)(F)F)cc3)c(/C=C/C3CC3)c2C1` [P-0220, (E)-1-(8-(2-cyclopropyl-vinyl)-7-(4-(trifluoro-methyl)phenoxy)-3,4-dihydroisoquinolin-2(1H)-yl)-3-(methylsul-fonyl)propan-1-one]: 0.001 to 10 µM; for `CS(=O)(=O)c1nccc(N2CCc3ccc(Oc4ccc(C(F)(F)F)cc4)cc3C2)n1` [P-0226, 2-(2-(methylsulfonyl)-pyrimidin-4-yl)-7-(4-(trifluoromethyl)phen-oxy)-1,2,3,4-tetrahydro-isoquinoline]: 0.001 to 10 µM.
Next, `O=C(CCc1nnc[nH]1)N1CCc2ccc(Oc3ccc(C(F)(F)F)cc3)cc2C1` [P-0058, 3-(4H-1,2,4-triazol-3-yl)-1-(7-(4-(trifluorometh-yl)phenoxy)-3,4-dihydro-isoquinolin-2(1H)-yl)-propan-1-one]: 0.001 to 10 µM; `CCS(=O)(=O)NC(=O)N1CCc2c(cccc2Oc2ccc(C(F)(F)F)cc2)C1` [P-0238, N-(ethylsulfonyl)-5-(4-(trifluoromethyl)phen-oxy)-3,4-dihydroisoquin-oline-2(1H)-carboxamide]: 0.001 to 10 µM.
Take `NC(=O)c1ccc(C(=O)N2CCc3ccc(Oc4ccc(C(F)(F)F)cc4)cc3C2)cn1` [P-0127, 5-(7-(4-(trifluorometh-yl)phenoxy)-1,2,3,4-tetrahydroisoquinoline-2-carbonyl)picolinamide]: the IC50 fell in the range of 0.001 to 10 µM.
